Data: patent US11142548B2, “Agents that activate CD47 and their use in the treatment of inflammation” (SORBONNE UNIVERSITE, priority 2016, dated 2021)

Tests used:
CD47 = CD47 (Homo sapiens, UniProt Q08722); conditions: comparison in words, no test described; cited from earlier work
subretinal IBA-1+ MPs = test: Laser-injury model in Cx3cr1GFP/GFP mice; type: in vivo, mouse; conditions: 2 μl intravitreal at day 4 and day 7, day 10, vs PBS or 4NGG
Procedure: (§1) Laser-coagulations were performed with a 532 nm ophtalmological laser mounted on an operating microscope (Vitra Laser, 532 nm, 450 mW, 50 ms, and 250 μm): Intravitreal injections of 2 μl of HTRA1 and/or TSP1 were performed using glass capillaries (Eppendorf) and a micro injector. The 2 μl injection solution contained 50 μg/ml TSP1 and HTRA1, corresponding to an intraocular concentration of 5 μg/ml of each protein assuming their dilution by approximately 1/10th in the intra-ocular volume. […] A volume of 2 μl of a 100 μM solution of either PBS, recombinant TSP1 (10 μg/ml), the 4NGG control peptide or the CD47-activating peptide PKT16 (200 μM) was injected at day 4 (when MP infiltration is maximal) and day 7 after the injury and evaluated subretinal inflammation on flatmounted RPE/choroidal flatmounts at day 10.
(§2) Eyes were enucleated, fixed in 4% PFA 30 minutes and sectioned at the limbus; the cornea and lens were discarded. […] Choroids and retinas were flatmounted and viewed with a fluorescence microscope DM5500B (Leica). IBA-1+ cells were counted on whole RPE/choroidal flatmounts and on the outer segment side of the retina. […]

[1] = system: subretinal IBA-1+ mononuclear monocytes; test: Laser-induced subretinal inflammation in wildtype- and Tsp1-/- mice; type: in vivo, mouse; conditions: wildtype- and Tsp1-/- mice, intravitreal at d3, d7; FIG. 3 statistics given for Tsp1-/- mice vs PBS
Procedure: as §1, §2

CD47, sequence (Q08722 19-323, species assumed): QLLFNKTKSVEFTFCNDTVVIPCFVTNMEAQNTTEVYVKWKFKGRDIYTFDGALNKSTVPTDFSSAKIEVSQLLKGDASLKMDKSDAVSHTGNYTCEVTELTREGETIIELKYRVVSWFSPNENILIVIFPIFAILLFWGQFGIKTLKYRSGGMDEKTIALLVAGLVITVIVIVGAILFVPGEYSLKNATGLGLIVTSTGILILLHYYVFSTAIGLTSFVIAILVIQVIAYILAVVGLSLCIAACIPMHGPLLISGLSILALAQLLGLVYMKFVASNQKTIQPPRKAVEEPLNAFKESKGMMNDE

Substance: recombinant TSP1: recombinant human TSP1 (R&D Systems), natural ligand and agonist of CD47
- half maximal effective concentration (EC50) relative to CD47-activating peptides or TSP2 (CD47): much lower
- elimination of subretinal IBA-1+ MPs adjacent to the laser impact (subretinal IBA-1+ MPs): eliminated significantly more efficiently
- reduction of laser-induced subretinal inflammation [1]: significantly reduces
